# Measured values from paper PMC6704710, “Preclinical evaluation of 3D185, a novel potent inhibitor of FGFR1/2/3 and CSF-1R, in FGFR-dependent and macrophage-dominant cancer models” (Journal of Experimental & Clinical Cancer Research : CR, 2019).
# Assays:
# Assay in all cases: Eurofins kinase panel
# Assay type in all cases: biochemical
# Conditions in all cases: read-out: Inhibition rate (%)
# PKCζ(h) = target: T1, PKCζ(h) (Homo sapiens, UniProt Q05513)
# T1 construct: purchased Eurofins (KinaseProfiler)
# T1 sequence (Q05513 1-592): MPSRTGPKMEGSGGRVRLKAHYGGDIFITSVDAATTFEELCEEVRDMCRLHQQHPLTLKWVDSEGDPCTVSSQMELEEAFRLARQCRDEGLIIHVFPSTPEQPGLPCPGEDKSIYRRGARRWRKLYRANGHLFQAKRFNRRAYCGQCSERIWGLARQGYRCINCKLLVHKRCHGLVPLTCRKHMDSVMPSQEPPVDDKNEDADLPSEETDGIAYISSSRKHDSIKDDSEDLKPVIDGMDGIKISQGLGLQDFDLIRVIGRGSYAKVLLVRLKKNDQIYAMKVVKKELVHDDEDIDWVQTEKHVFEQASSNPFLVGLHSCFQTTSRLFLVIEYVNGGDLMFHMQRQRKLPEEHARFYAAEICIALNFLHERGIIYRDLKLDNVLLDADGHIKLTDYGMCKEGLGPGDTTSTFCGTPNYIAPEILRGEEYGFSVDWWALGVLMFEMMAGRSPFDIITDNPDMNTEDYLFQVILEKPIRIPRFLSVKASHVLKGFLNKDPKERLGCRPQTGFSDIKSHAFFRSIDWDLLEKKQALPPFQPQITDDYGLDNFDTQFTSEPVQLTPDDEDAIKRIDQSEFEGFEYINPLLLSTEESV
# eEF-2K(h) = target: T2, eEF-2K(h) (Homo sapiens, UniProt O00418)
# T2 construct: purchased Eurofins (KinaseProfiler)
# T2 sequence (O00418 1-725): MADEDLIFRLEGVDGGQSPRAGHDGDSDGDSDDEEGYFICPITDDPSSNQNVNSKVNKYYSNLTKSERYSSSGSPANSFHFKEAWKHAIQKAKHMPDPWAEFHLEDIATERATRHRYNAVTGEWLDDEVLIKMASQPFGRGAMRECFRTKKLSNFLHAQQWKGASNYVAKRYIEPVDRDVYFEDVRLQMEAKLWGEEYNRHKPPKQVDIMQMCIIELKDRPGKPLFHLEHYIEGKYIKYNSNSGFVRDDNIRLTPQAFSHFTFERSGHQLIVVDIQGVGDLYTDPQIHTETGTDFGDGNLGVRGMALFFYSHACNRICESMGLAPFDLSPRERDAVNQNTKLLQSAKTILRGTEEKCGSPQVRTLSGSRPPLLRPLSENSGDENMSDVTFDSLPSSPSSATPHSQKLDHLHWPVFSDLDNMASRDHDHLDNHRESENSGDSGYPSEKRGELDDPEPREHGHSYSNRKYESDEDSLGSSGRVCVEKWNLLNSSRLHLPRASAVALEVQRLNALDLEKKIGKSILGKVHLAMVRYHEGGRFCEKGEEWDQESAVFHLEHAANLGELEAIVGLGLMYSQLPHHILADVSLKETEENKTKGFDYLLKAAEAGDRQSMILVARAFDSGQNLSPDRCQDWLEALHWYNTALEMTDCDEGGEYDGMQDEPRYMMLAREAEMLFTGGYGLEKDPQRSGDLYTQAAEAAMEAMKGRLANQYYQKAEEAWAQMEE
# Met(Y1248C)(h) = target: T3, Met(Y1248C)(h) (Homo sapiens, UniProt P08581, Y1230C)
# T3 construct: purchased Eurofins (KinaseProfiler)
# STK33(h) = target: T4, STK33(h) (Homo sapiens, UniProt Q9BYT3)
# T4 construct: purchased Eurofins (KinaseProfiler)
# CK1γ3(h) = target: T5, CK1γ3(h) (Homo sapiens, UniProt Q9Y6M4)
# T5 construct: purchased Eurofins (KinaseProfiler)
# EGFR(h) = target: T6, EGFR(h) (Homo sapiens, UniProt P00533)
# T6 construct: purchased Eurofins (KinaseProfiler)
# GRK1(h) = target: T7, GRK1(h) (Homo sapiens, UniProt Q15835)
# T7 construct: purchased Eurofins (KinaseProfiler)
# T7 sequence (Q15835 1-563): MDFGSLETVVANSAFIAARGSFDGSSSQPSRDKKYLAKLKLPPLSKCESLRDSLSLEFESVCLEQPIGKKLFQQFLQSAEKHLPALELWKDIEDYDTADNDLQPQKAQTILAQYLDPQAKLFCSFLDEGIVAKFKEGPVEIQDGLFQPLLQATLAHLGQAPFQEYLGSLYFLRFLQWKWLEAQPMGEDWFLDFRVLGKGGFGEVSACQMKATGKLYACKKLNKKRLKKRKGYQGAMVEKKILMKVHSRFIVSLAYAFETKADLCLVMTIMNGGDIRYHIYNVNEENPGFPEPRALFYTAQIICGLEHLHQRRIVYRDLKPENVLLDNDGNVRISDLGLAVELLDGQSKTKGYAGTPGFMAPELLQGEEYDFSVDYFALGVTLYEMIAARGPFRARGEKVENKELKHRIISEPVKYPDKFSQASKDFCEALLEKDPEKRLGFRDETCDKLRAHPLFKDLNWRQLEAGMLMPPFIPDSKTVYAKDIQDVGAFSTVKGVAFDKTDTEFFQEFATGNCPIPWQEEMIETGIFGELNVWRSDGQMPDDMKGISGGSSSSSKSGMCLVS
# PIP5K1γ(h) = target: T8, PIP5K1γ(h) (Homo sapiens, UniProt O60331)
# T8 construct: purchased Eurofins (KinaseProfiler)
# SAPK2a(h) = target: T9, SAPK2a(h) (Homo sapiens, UniProt Q16539)
# T9 construct: purchased Eurofins (KinaseProfiler)
# MYLK2(h) = target: T10, MYLK2(h) (Homo sapiens, UniProt Q9H1R3)
# T10 construct: purchased Eurofins (KinaseProfiler)
# T10 sequence (Q9H1R3 whole entry): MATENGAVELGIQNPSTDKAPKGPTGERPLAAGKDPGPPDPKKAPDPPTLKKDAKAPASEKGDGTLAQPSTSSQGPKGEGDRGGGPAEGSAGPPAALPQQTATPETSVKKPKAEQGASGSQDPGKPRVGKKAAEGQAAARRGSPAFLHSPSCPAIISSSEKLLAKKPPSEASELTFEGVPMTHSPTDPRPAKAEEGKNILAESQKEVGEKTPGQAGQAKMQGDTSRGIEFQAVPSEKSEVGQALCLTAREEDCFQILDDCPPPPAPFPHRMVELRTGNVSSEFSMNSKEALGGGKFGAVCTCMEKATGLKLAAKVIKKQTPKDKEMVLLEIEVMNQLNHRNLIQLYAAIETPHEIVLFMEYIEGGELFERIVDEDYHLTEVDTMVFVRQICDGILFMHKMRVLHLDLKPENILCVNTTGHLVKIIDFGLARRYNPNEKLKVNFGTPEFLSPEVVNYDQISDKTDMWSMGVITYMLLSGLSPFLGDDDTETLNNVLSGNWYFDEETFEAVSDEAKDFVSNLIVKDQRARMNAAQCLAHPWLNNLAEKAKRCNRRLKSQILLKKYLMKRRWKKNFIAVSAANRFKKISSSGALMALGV
# T3 sequence (P08581 956-1390 Y1230C limits assumed): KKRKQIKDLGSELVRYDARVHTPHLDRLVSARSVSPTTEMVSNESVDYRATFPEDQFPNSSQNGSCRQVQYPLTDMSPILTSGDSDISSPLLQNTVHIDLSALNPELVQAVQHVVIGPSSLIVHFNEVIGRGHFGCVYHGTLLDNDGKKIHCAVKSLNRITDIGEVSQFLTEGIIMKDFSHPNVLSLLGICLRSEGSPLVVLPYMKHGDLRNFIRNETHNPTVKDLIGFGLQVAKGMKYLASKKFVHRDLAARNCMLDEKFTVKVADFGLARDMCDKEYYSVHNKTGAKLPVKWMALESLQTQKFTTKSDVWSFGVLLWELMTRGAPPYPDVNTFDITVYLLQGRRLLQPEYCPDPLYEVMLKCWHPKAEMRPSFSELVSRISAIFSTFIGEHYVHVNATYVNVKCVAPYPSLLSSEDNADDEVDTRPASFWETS
# T4 sequence (Q9BYT3 whole entry): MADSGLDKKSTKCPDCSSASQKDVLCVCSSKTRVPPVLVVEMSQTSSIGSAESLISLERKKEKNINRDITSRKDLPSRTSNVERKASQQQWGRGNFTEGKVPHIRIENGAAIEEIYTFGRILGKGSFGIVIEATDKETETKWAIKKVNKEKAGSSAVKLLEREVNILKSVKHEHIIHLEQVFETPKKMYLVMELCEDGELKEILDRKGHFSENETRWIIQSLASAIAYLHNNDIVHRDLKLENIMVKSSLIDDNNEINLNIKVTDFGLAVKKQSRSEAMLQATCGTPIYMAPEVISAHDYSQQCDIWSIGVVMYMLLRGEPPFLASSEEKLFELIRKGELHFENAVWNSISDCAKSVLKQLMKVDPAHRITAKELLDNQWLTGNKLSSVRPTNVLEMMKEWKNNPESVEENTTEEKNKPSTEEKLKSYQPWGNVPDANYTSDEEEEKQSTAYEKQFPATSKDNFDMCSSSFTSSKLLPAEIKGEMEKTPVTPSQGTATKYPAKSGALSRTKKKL
# T5 sequence (Q9Y6M4 whole entry): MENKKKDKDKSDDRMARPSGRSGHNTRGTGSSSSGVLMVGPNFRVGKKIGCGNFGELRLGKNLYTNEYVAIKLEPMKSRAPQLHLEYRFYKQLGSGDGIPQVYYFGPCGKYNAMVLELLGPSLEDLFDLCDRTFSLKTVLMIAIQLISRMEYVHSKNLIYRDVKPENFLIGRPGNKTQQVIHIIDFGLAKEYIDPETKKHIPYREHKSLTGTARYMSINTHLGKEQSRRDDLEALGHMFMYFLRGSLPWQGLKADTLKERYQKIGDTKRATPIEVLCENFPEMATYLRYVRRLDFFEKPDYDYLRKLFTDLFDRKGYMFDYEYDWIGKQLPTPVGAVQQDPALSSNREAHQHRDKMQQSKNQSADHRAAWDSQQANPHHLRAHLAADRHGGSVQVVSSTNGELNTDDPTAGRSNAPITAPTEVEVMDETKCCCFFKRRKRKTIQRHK
# T9 sequence (Q16539 whole entry): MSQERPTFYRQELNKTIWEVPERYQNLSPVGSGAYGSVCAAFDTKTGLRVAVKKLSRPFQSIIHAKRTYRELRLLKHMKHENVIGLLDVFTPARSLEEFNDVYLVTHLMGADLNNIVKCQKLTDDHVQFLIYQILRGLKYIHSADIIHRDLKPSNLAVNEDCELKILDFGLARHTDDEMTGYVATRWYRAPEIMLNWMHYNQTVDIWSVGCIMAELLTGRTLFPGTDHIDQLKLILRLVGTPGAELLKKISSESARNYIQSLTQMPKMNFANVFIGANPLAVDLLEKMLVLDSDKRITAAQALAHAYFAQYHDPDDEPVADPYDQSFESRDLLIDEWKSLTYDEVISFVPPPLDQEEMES
# T8 sequence (O60331 whole entry): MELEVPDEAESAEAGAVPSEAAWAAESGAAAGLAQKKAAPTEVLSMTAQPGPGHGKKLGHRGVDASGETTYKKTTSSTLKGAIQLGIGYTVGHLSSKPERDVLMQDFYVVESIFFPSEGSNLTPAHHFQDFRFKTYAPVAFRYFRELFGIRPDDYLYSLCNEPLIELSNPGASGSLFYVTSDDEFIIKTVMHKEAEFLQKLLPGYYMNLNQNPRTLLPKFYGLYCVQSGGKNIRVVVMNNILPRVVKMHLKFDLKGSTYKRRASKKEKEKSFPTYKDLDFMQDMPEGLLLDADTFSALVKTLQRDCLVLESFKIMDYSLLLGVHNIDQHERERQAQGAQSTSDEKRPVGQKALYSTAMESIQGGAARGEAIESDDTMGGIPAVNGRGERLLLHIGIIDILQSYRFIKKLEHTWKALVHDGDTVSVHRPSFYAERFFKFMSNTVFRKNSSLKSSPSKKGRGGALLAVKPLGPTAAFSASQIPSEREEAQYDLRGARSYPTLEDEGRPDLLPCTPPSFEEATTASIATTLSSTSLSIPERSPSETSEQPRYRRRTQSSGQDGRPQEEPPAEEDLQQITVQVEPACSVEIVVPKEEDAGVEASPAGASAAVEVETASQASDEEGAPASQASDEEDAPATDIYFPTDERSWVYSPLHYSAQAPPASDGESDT
# T6 sequence (P00533 25-1210): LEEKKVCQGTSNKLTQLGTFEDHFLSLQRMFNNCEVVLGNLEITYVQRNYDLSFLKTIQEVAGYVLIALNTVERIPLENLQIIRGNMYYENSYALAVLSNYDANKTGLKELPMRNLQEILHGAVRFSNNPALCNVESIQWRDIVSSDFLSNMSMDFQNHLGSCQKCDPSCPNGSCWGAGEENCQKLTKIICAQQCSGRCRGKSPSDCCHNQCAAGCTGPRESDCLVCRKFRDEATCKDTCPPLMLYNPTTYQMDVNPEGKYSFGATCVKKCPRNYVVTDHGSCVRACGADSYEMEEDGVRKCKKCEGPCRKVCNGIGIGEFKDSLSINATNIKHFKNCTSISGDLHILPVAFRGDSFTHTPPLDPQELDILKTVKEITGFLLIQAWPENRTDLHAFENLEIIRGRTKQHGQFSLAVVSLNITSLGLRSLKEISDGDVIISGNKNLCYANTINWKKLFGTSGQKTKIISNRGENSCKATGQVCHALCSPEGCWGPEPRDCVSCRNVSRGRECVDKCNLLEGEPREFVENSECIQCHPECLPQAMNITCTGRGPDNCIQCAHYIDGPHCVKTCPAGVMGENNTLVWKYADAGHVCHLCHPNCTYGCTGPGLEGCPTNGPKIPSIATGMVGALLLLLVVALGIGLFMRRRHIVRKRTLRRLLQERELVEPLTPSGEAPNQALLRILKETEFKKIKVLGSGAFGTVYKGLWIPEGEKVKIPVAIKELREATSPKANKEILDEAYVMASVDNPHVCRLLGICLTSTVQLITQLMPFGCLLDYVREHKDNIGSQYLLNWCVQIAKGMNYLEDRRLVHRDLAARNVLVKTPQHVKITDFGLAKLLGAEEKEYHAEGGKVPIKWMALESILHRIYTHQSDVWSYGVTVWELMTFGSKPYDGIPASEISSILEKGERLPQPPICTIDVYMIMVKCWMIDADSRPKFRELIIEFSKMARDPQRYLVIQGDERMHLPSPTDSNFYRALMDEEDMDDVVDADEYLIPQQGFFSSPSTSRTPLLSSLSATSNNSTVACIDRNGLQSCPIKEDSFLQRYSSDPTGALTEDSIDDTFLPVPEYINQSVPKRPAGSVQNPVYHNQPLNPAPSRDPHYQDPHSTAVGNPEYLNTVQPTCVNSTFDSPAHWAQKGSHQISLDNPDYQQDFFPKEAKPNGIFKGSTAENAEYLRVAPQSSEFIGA
compound,measurement,setting,value
COc1cc(OC)c(Cl)c(-c2ccc3c(NC(=O)c4ccc(N5CCNC(C)(C)C5)cc4)n[nH]c3n2)c1Cl [3D185],inhibition at 0.01 µM,PKCζ(h); 10 nM,-11%
same,inhibition at 0.1 µM,PKCζ(h); 100 nM,7%
same,inhibition at 1 µM,PKCζ(h); 1000 nM,-22%
same,inhibition at 0.01 µM,eEF-2K(h); 10 nM,4%
same,inhibition at 0.1 µM,eEF-2K(h); 100 nM,2%
same,inhibition at 1 µM,eEF-2K(h); 1000 nM,11%
same,inhibition at 0.01 µM,Met(Y1248C)(h); 10 nM,-9%
same,inhibition at 0.1 µM,Met(Y1248C)(h); 100 nM,-2%
same,inhibition at 1 µM,Met(Y1248C)(h); 1000 nM,5%
same,inhibition at 0.01 µM,STK33(h); 10 nM,3%
same,inhibition at 0.1 µM,STK33(h); 100 nM,9%
same,inhibition at 1 µM,STK33(h); 1000 nM,13%
same,inhibition at 0.01 µM,CK1γ3(h); 10 nM,1%
same,inhibition at 0.1 µM,CK1γ3(h); 100 nM,-10%
same,inhibition at 1 µM,CK1γ3(h); 1000 nM,12%
same,inhibition at 0.01 µM,EGFR(h); 10 nM,-12%
same,inhibition at 0.1 µM,EGFR(h); 100 nM,-16%
same,inhibition at 1 µM,EGFR(h); 1000 nM,0%
same,inhibition at 0.01 µM,GRK1(h); 10 nM,-2%
same,inhibition at 0.1 µM,GRK1(h); 100 nM,-5%
same,inhibition at 1 µM,GRK1(h); 1000 nM,-7%
same,inhibition at 0.01 µM,PIP5K1γ(h); 10 nM,6%
same,inhibition at 0.1 µM,PIP5K1γ(h); 100 nM,6%
same,inhibition at 1 µM,PIP5K1γ(h); 1000 nM,10%
same,inhibition at 0.01 µM,SAPK2a(h); 10 nM,-7%
same,inhibition at 0.1 µM,SAPK2a(h); 100 nM,-2%
same,inhibition at 1 µM,SAPK2a(h); 1000 nM,-4%
same,inhibition at 0.01 µM,MYLK2(h); 10 nM,7%
same,inhibition at 0.1 µM,MYLK2(h); 100 nM,0%
same,inhibition at 1 µM,MYLK2(h); 1000 nM,21%
